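How tested: cells in 96-well plates exposed to compound for 48 hours at five concentrations. Abbreviation: GI50, concentration required for 50% inhibition of growth. At the TGI there is no net growth.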 Some results are limits rather than exact numbers.

Holding throughout (test): growth of human tumour cells (NCI), 48 h
Assay [1] deals with CCRF-CEM leukemia.
Assay [2] deals with DU-145 prostate.
Assay [3] concerns MDA-MB-435.
The test system of assay [4] is NCI-H226 lung.
In assay [5] the test system is NCI/ADR-RES ovarian.
Assay [6] deals with OVCAR-5 ovarian.
Assay [7] has as its system SNB-75 CNS.
Assay [8] has as its system SW-620 colon.
The test system of assay [9] is T-47D breast.
Assay [10] concerns UO-31 renal.

Consider `COc1ccc(C(=O)c2cc(OC)c(OC)c(OC)c2)cc1O`, for which the GI50 in [1] was 0.0308 µM; in assay [2], 0.0387 µM; in assay [3], less than 0.01 µM; in assay [4], 4.76 µM; in assay [5], 0.0118 µM; in assay [6], 1.6 µM. For the same molecule, the GI50 in assay [7] was less than 0.01 µM; in assay [8] it was less than 0.01 µM; in assay [9] it was 26 µM; in [10] it was 0.296 µM. Also, the TGI in assay [1], in [2], in assay [4], in assay [5], in [6] and in assay [7] was greater than 100 µM each time. Further, the TGI in assay [8], in assay [9] and in assay [10] was greater than 100 µM in each case.

For the molecule `Cc1cc(-c2nc3ccc(O)cc3s2)ccc1N`, the GI50 is 0.797 µM in assay [1]; 34.1 µM in assay [2]; 88.3 µM in [3]; 60.2 µM in [4]; 91.1 µM in assay [5]; 82.6 µM in [6]. For the same molecule, the GI50 was 15.8 µM in assay [7], 66.8 µM in assay [8], 22.6 µM in assay [9] and 21.6 µM in assay [10]. The TGI in assay [1], in assay [2], in assay [3], in assay [4], in assay [5] and in [6] was greater than 100 µM each time. In addition, the TGI is 71 µM in [7], greater than 100 µM in assay [8], greater than 100 µM in assay [9] and greater than 100 µM in assay [10].

Consider `O=C(Nc1ccncc1)C(=O)c1cn(S(=O)(=O)c2ccccc2F)c2ccccc12`, for which the GI50 in assay [1] is 4.35 µM; in assay [2], 3.48 µM; in assay [3], 0.188 µM; in [4] it was 6.93 µM; in assay [5], 0.579 µM; in [6] it was 5.38 µM. In addition, the GI50 was 1.65 µM in assay [7], 1.44 µM in [8], 2.53 µM in assay [9] and 3.66 µM in assay [10]. Besides, the TGI in assay [1] is greater than 100 µM; in assay [2], 18.5 µM; in [3] it was 0.695 µM; in [4], greater than 68.6 µM; in [5] it was greater than 100 µM; in [6], 98.2 µM. Further, the TGI in assay [7] was 18 µM; in [8] it was greater than 100 µM; in assay [9] it was greater than 87.1 µM; in assay [10], greater than 95 µM.

Regarding `Nc1ncc(-c2ccc(C(F)(F)F)cc2)c(NC2CCCCCC2)n1`, the GI50 in assay [1] is 15.4 µM; in assay [2] it was 39.9 µM; in [3] it was 35 µM; in assay [4], 12.9 µM; in assay [5] it was 25.3 µM; in assay [6] it was 45.6 µM. In addition, the GI50 was 43.4 µM in assay [7], 39.3 µM in assay [8], 18.3 µM in assay [9] and 13 µM in [10]. In addition, the TGI is 52.8 µM in [1]; greater than 100 µM in assay [2]; greater than 100 µM in assay [3]; greater than 100 µM in [4]; greater than 100 µM in assay [5]; greater than 100 µM in assay [6]. Also, the TGI in assay [7], in [8], in assay [9] and in assay [10] was greater than 100 µM each time.

(Values after PubChem BioAssay (NCI).)
